Columns and labels:
[1] = target: recombinant ALK kinase domain (Homo sapiens, UniProt Q9UM73); assay: LanthaScreen Eu Kinase Binding Assay, recombinant ALK kinase domain; details: room temperature, 1 h
Description: Enzymatic assay for recombinant ALK kinase domain was conducted using the LanthaScreen® Eu Kinase Binding Assays. LanthaScreen® Eu Kinase Binding Assays are based on the binding and displacement of a proprietary. The assay was performed at room temperature for 1 h in a total volume of 15 μL, including 5 μL of test compound, 5 μL of kinase/antibody mixture and 5 μL of tracer. After 1 h incubation, fluorescence was measured. The division of acceptor/tracer emission (665 nm) by the antibody/donor emission (615 nm) was used to calculate the emission ratio.

[2] = test system: H2228 cells; assay: MTT cell viability assay, H2228 cells; format: cell-based; details: Homo sapiens, NCI-H2228, 72 h treatment
Description: (§1) H2228 and CCD19(Lu) cells were obtained from the American Type Culture Collection and cultured in an environment of 5% CO2 at 37° C. in RPMI-1640 mediums supplemented with 10% fetal bovine serum (FBS), 100 units/mL penicillin, and 100 μg/mL streptomycin.
(§2) Cell viability was determined by MTT assay. H2228 and CCD19 cells (3×10^3 cells/well) were seeded into a 96-well plate and treated with indicated concentrations of the compound of Formula (V) for 72 h. At the end of incubation, 10 μl MTT (0.5 mg/ml) (Sigma) was added to each well. After incubating for 4 h at 37° C., supernatants were removed and 150 μl of DMSO was added. The formazan crystals formed inside the viable cells were solubilized in DMSO and the OD was read with Microplate Reader (Epoch, Winooski, USA) at 570 nm. The IC50 value for the compound was determined by GraphPad Prim5.0 software. The experiments were performed three times with three replicates in each.

[3] = test system: normal lung cells CCD19; assay: MTT cell viability assay, normal lung cells CCD19; format: cell-based; details: 72 h treatment
Description: as §1, §2

Sequence of recombinant ALK kinase domain (Q9UM73 1116-1392 limits assumed): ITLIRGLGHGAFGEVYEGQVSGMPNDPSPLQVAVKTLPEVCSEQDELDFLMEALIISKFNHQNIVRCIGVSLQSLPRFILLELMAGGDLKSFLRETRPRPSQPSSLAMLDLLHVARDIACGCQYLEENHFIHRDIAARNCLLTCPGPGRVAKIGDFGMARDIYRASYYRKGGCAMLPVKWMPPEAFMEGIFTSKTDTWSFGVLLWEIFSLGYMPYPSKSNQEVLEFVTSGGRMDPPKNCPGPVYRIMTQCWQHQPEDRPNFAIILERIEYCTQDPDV

Cc1sc2nc3c4ccccc4c(NCCCN(C)C)nn3c(=O)c2c1C [Formula (V)]
EC50 [1]: 0.0196 µM | IC50 [2]: 4.11 ± 0.96 µM | IC50 [3]: 16.8 ± 2.04 µM

Reference: patent publication US10111876B2, “ALK Kinase Inhibitor and its use” (Macau University of Science and Technology, priority 2016, dated 2018)
